Results on one substance are retold here after article PMC10111413 (ACS Infectious Diseases, 2023).

Experiment [1] relates to E. coli ATCC 25922 mcr-1. Format: cell-based. The conditions noted are these: CLSI microbroth dilution, Mueller Hinton broth, 18 h at 37 °C, visual read-out, three technical replicates; mcr-1 colistin resistance plasmid. The method, then:
(§1) The antibacterial activities of relacidine A (3a) and B (4a), along with diastereomers 3b and 4b–d and relacidamide (5), were assessed using a standard microbroth dilution assay to establish minimum inhibitory concentration (MIC) values against a panel of Gram-negative bacteria (Table 1). The MIC values measured for synthetic relacidine A (3a) and B (4a) agree well with those previously published.[9] […] Relacidine A (3a) and B (4a), as well as relacidamide (5), were further tested against a panel of colistin-resistant A. baumannii clinical isolates, which confirmed their ability to prevent the growth of colistin-resistant isolates (Supplemental Table S2). […] Also of interest was the finding that while relacidine B (4a) induced <1% hemolysis, a substitution of either the L-Ala or L-Ser to D-Ala or D-Ser increased hemolytic activity to 8–12%. […] The greater hydrolytic stability of relacidine B would appear to be attributable to the increased steric bulk of the Ala side chain next to the ester linkage (compared with the methylene of Gly in relacidine A), which may hinder the nucleophilic attack of water at the ester carbonyl.
(§2) Colistin sulfate was purchased from Activate Scientific. Kanamycin monosulfate was purchased from MP Biomedicals. E. coli ATCC 25922, S. aureus USA300 (ATCC BAA1717), and K. pneumoniae ATCC 13883 belong to the American Type Culture Collection (ATCC). P. aeruginosa PAO1 was kindly provided by L.H.C. Quarles Van Ufford of Utrecht University, Utrecht, The Netherlands. E. coli ATCC 25922 MCR-1 was transfected in-house using the pGDP2-MCR1 plasmid kindly provided by Yong-Xin Li of The University of Hong Kong, Hong Kong, China. Sheep blood agar plates (ref. PB5039A) were purchased from Thermo Scientific. Tryptic soy broth (ref. 02-200-500) was purchased from Scharlab. Mueller-Hinton broth (ref. X927.1) was purchased from Carl Roth. Polypropylene 96-wells plates (ref. 3879) were purchased from Corning.
(§3) MICs were determined according to Clinical and Standards Laboratory Institute (CLSI) guidelines. Blood agar plates were inoculated with glycerol stocks of E. coli ATCC 25922, K. pneumoniae ATCC 13883, P. aeruginosa PAO1, and S. aureus USA300. The inoculated agar plates were then incubated for 16 h at 37 °C. Individually grown colonies were subsequently used to inoculate 5 mL aliquots of tryptic soy broth (TSB) that were then incubated at 37 °C with shaking at 220 rpm. E. coli 25922 MCR-1 glycerol stock was used to inoculate 5 mL of TSB supplemented with kanamycin that was then incubated for 16 h at 37 °C with shaking at 220 rpm. The next day, the culture was diluted 100-fold in TSB supplemented with kanamycin and incubated at 37 °C with shaking at 220 rpm. In parallel, the lipopeptide antibiotic DMSO stocks to be assessed were serially diluted with Mueller Hinton broth (MHB) in polypropylene 96-well plates (50 μL in each well). Colistin sulfate stocks were dissolved in water before being diluted with MHB. Aliquots of the inoculated TSB were incubated until an OD600 of around 0.5 was reached. The bacterial suspensions were then diluted with MHB (2 × 10^5 cfu mL^–1) and added to the microplates containing the test compounds (50 μL to each well). The well plates were sealed with an adhesive membrane, and after 18 h of incubation at 37 °C with shaking at 600 rpm, the wells were visually inspected for bacterial growth. MIC values reported are based on three technical replicates and defined as the lowest concentration of the compound that prevented visible growth of bacteria.

Experiment [2] concerns E. coli ATCC 25922. In kind it is cell-based. The conditions noted are these: CLSI microbroth dilution, Mueller Hinton broth, 18 h at 37 °C, visual read-out, three technical replicates. The method, then:
as §1, §2, §3
For orientation: Dilution methods test growth across graded concentrations, often in twofold steps.

Experiment [3] concerns K. pneumoniae ATCC 13883. In kind it is cell-based. The conditions noted are these: CLSI microbroth dilution, Mueller Hinton broth, 18 h at 37 °C, visual read-out, three technical replicates. The method, then: as §1, §2, §3
The subject of experiment [4] is P. aeruginosa PAO1. Format: cell-based. The conditions noted are these: CLSI microbroth dilution, Mueller Hinton broth, 18 h at 37 °C, visual read-out, three technical replicates. Here is the method:
as §1, §2, §3

For experiment [5], the system named is S. aureus USA300. Format: cell-based. The conditions noted are these: CLSI microbroth dilution, Mueller Hinton broth, 18 h at 37 °C, visual read-out, three technical replicates. The method, then:
as §1, §2, §3

In experiment [6] the test system is colistin-resistant A. baumannii isolate BV94. Description: G. mellonella larvae infection model. In kind it is in vivo. The conditions noted are these: injected 1 h postinfection, 10^5 cfu A. baumannii BV94 per larva, ten larvae per group, 37 °C. From the text:
Given the promising in vitro activity of relacidamide (5), along with its high serum stability, low hemolytic activity, and ease of synthesis, we further evaluated its efficacy in an established in vivo infection model using G. mellonella larvae. The G. mellonella infection model has gained popularity in recent years and provides a convenient method to assess the in vivo effectiveness and toxicity of novel antibiotics.[15],[16] […] The larvae were first injected with either vehicle (PBS) or A. baumannii BV94 suspension in the right second proleg. The moth larvae were then injected in the left second proleg with either PBS (untreated), colistin at 100 mg/kg or 200 mg/kg, or relacidamide (5) at 100 mg/kg or 200 mg/kg. The G. mellonella larvae were then incubated for 72 h, and their survival was assessed twice per day. […]
Ten G. mellonella larvae (Serum Therapeutics Inc., average weight of 0.265 g) per group were infected using a 10 μL injection in the right second proleg with mid-log phase (OD600 = 0.5)-growing bacteria resuspended and diluted in phosphate-buffered saline (PBS) to achieve the target inoculum of 10^5 colony forming unit (cfu) per larva. […] The viability of the larvae was assessed twice a day up to a total of 72 h postinfection by checking for movement. […]

For colistin [reference compound], the “MIC E. coli ATCC 25922 mcr-1” value in experiment [1] amounted to 4 µg/mL. Moreover, the “MIC E. coli ATCC 25922” value in experiment [2] amounted to 1 µg/mL. In addition, in experiment [3], the “MIC K. pneumoniae ATCC 13883” value fell in the range of 0.25 to 0.5 µg/mL. Also, in experiment [4], the “MIC P. aeruginosa PAO1” value is 1 µg/mL. Also, in experiment [5], the “MIC S. aureus USA300” value is above 32 µg/mL. Moreover, the “survival of G. mellonella larvae after 72 h” value in experiment [6] (100 mg/kg) and in experiment [6] (200 mg/kg) was “none” each time.
